Laboratory results from PubChem BioAssay (NCI).
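48-hour exposure; five concentrations; linearly interpolated endpoints. GI50 marks 50% less growth. At the TGI there is no net growth.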

Assays:
Experiment in all cases: inhibition of tumour cell growth, NCI panel, 48 h
[1] = tested on: NCI-H226 lung
[2] = tested on: NCI-H23 lung
[3] = tested on: NCI-H460 lung
[4] = tested on: NCI-H522 lung
[5] = tested on: NCI/ADR-RES ovarian
[6] = tested on: OVCAR-3 ovarian
[7] = tested on: OVCAR-4 ovarian
[8] = tested on: OVCAR-5 ovarian
[9] = tested on: OVCAR-8 ovarian
[10] = tested on: PC-3 prostate
[11] = tested on: RPMI-8226 leukemia
[12] = tested on: SF-268 CNS
[13] = tested on: SF-295 CNS
[14] = tested on: SF-539 CNS
[15] = tested on: SK-MEL-2 melanoma
[16] = tested on: SK-MEL-28 melanoma
[17] = tested on: SK-MEL-5 melanoma
[18] = tested on: SK-OV-3 ovarian
[19] = tested on: SN12C renal
[20] = tested on: SNB-19 CNS
[21] = tested on: SNB-75 CNS
[22] = tested on: SR leukemia
[23] = tested on: SW-620 colon
[24] = tested on: T-47D breast
[25] = tested on: TK-10 renal
[26] = tested on: U251 CNS
[27] = tested on: UACC-62 melanoma
[28] = tested on: UO-31 renal

Compound: CC(C)(Oc1ccc(Cl)cc1)C(=O)NC1C2CC3CC1CC(NS(C)(=O)=O)(C3)C2 (stereo not given)
- TGI [1]: > 100 µM
- GI50 [2]: > 100 µM
- TGI [2]: > 100 µM
- GI50 [3]: > 100 µM
- TGI [3]: > 100 µM
- GI50 [4]: > 100 µM
- TGI [4]: > 100 µM
- GI50 [5]: > 100 µM
- TGI [5]: > 100 µM
- GI50 [6]: > 100 µM
- TGI [6]: > 100 µM
- GI50 [7]: 23.3 µM
- TGI [7]: > 100 µM
- GI50 [8]: 68.4 µM
- TGI [8]: > 100 µM
- GI50 [9]: > 100 µM
- TGI [9]: > 100 µM
- GI50 [10]: 30.7 µM
- TGI [10]: > 100 µM
- GI50 [11]: 20.9 µM
- TGI [11]: 68.1 µM
- GI50 [12]: > 100 µM
- TGI [12]: > 100 µM
- GI50 [13]: > 100 µM
- TGI [13]: > 100 µM
- GI50 [14]: 37.5 µM
- TGI [14]: > 100 µM
- GI50 [15]: > 100 µM
- TGI [15]: > 100 µM
- GI50 [16]: 26.8 µM
- TGI [16]: > 100 µM
- GI50 [17]: > 100 µM
- TGI [17]: > 100 µM
- GI50 [18]: > 100 µM
- TGI [18]: > 100 µM
- GI50 [19]: > 100 µM
- TGI [19]: > 100 µM
- GI50 [20]: > 100 µM
- TGI [20]: > 100 µM
- GI50 [21]: 42.8 µM
- TGI [21]: > 100 µM
- GI50 [22]: 18.5 µM
- TGI [22]: 58.9 µM
- GI50 [23]: > 100 µM
- TGI [23]: > 100 µM
- GI50 [24]: > 100 µM
- TGI [24]: > 100 µM
- GI50 [25]: > 100 µM
- TGI [25]: > 100 µM
- GI50 [26]: > 100 µM
- TGI [26]: > 100 µM
- GI50 [27]: 24.1 µM
- TGI [27]: > 100 µM
- GI50 [28]: > 100 µM
- TGI [28]: > 100 µM
